The values below come from paper PMC4527730, “A Pan-GTPase Inhibitor as a Molecular Probe” (PLoS ONE, 2015).

For one data set, the target named is Cdc42 (Homo sapiens, UniProt P60953). Nature of the data set: GTPase and effector interaction assay (PAK-PBD beads), HeLa cell lysates. Particulars: HeLa cells, 10 μM, 2 h, EGF 10 ng/mL 2 min.
A short description of data set [1]: Solubility in PBS and assay media. Format: physicochemical. The protocol:
page 7: conclusion, the available data support the idea that compound CID1067700 has non-classical competitive character. […] Solubility was measured in phosphate buffered saline (PBS) at room temperature (23 °C). PBS by definition is 137 mM NaCl, 2.7 mM KCl, 10 mM sodium phosphate dibasic, 2 mM potassium phosphate [monobasic and a pH of 7.4. Detection was based on UV absorbance. […] Solubility was also assessed in the each of the four media used in the individual assays. […] Table 1S. […] Stability, depicted as closed circles in the graph, was assessed at room temperature (23 °C) in PBS (no antioxidants or other protectants and DMSO concentration below 0.1%). Stability data is depicted in Fig. S8 showing the loss of compound with time over a 48 h period with a minimum of 6 time points and providing the percent remaining compound at end of the 48 h period. Under these conditions, 77% of 1 remains after 48 hours. The degradation has not been further characterized.

Another data set addresses Cdc42 Q61L (Homo sapiens, UniProt P60953, Q61L). Description: Multiplex bead-based flow cytometry dose-response of fluorescent guanine nucleotide binding. Conditions: EC50 Cdc42 Q61L.
A further data set deals with SCC-12F cells. Description: Cytotoxicity (CellTiter-Glo). The data set is classed as cell-based. Conditions: up to 100 µM; 24 h and 3 h. The protocol:
(§1) S3 Fig. Cytotoxicity of 1 and analogues. […]
(§2) µM over the experimental time frame. Compounds tested in the U937ΔST cells for 24 h (A) and (B), and for 1 h (C). Compounds tested in SCC-12F cells for 24 h (D) and (E), and for 3 h (F-I). Data are reported as ratios of luminescence to that of the DMSO treated control.
(§3) (1 picture or pasted object on this page, not shown here)
(§4) FITC-LDV dissociation assay
(§5) The dissociation kinetics of FITC-LDV was measured by flow cytometry following the addition of 100-fold excess of non-fluorescent LDV. (The kinetic constants obtained are the same within experimental error whether adding 100-fold or 200-fold excess non-fluorescent LDV). The fluorescence decrease was recorded (see B in S2 Fig.). For the resting state, when a fluorescence plateau was reached after the addition of LDV-FITC, LDV was added to the cell suspension. For the high affinity state, when the fluorescence reached equilibrium after the sequential addition of LDV-FITC and N-formyl peptide, LDV was added. To study the effect of a compound, LDV was added at the time point when the fluorescence approached a […]. The fluorescence decrease curve was fitted to Equation 2 to obtain the dissociation rate constant koff. […] Therefore the binding affinity can also be estimated by comparing the measured koff. […]
A general note: In ATP-based viability assays light output follows the ATP content of the culture.

The subject of data set [2] is U937 FPRΔST cells. Nature of the data set: Cytotoxicity (CellTiter-Glo). Format: cell-based. Particulars: up to 100 µM; 24 h and 1 h. The protocol:
as §1, §2, §3, §4, §5

In the next data set the test system is Ras. Nature of the data set: GTPase and effector interaction assay (Raf1-RBD beads), HeLa cell lysates. Particulars: HeLa cells, 10 μM, 2 h, EGF 10 ng/mL 2 min.
The subject of another data set is H358 cells. Nature of the data set: PE Annexin V apoptosis assay. Format: cell-based. Conditions: 24 h or 48 h. The procedure: (§6) Cells were plated in a 96-well plate at 2000 cells per well and allowed to incubate overnight. Compound 1 or the same volume of DMSO was added on the second day. Viability was examined after 48 h. Data were collected from at least triplicate samples. Results were reported as viability treated/viability untreated (DMSO control). To evaluate apoptosis, the PE Annexin V Apoptosis Kit I was used. In 6-well plates, H358 cells were seeded at 50% confluence, while U937 FPRΔST cells were at 0.02 x 10^6 /mL. After overnight incubation, the cells were treated with compound 1 or DMSO. At 24 h or 48 h, cells were washed with PBS, and resuspended in 100 uL annexin-V binding buffer. After staining with annexin-V-FITC and 7-AAD, cells were analyzed on an Accuri C6 flow cytometer. At least 7,000 cells were measured per individual sample. The annexin^+AAD^- cells are defined as cells undergoing apoptosis. Data were collected from duplicate samples and the experiments were repeated. Results are given as the ratios of the apoptotic populations between the compound-treated and the DMSO-treated cells.

In data set [3] the test system is U937 FPRΔST cells. Description: PE Annexin V apoptosis assay. Format: cell-based. Particulars: 24 h or 48 h. The protocol: as §6
For a further data set, the target named is Rac1 Q61L (Homo sapiens, UniProt P63000, Q61L). Description: Multiplex bead-based flow cytometry dose-response of fluorescent guanine nucleotide binding. Conditions: EC50 Rac1 Q61L.
[4] abbreviates: BODIPY-FL GTP binding, 2 h at 4°C.
[5] abbreviates: concentration dependence on BODIPY-FL GDP.

The structures appear in SMILES notation. Several values for one entry are separate records, joined by “and”; a condition that tells them apart may be missing. Identical values can stand only once. Like-named read-outs stand apart in the source and are kept apart here.

Cdc42 Q61L, sequence (P60953 whole entry Q61L): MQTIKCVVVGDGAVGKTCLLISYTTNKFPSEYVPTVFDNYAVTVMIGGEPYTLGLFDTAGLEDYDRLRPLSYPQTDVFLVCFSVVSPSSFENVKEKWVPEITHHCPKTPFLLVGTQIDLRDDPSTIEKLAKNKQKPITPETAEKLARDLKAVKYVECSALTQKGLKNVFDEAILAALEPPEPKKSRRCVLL
Cdc42, sequence (P60953 whole entry): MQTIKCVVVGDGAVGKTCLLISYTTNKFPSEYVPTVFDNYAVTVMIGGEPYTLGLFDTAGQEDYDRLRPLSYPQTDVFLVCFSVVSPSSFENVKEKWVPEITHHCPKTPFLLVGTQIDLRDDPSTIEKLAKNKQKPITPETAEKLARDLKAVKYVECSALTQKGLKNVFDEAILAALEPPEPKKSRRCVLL
Experimental for Cdc42 Q61L: Briefly, individual GST-GTPases were separately attached to glutathione microsphere beads that were labeled with varying intensity of red fluorescent dye, and subsequently combined. The buffer contains 30 mM HEPES (pH 7.2), 150 mM KCl, 20 mM NaCl, 0.1% BSA, 1 mM DTT, 1 mM EDTA and 0.1% NP-40. […] To study whether the compounds are slow binders, BODIPY^- FL GTP was added either immediately or 2 h after compound addition. […] The curves were fitted to the sigmoidal dose-response equation using GraphPad Prism. Percent response was calculated as the ratio of (sample MCF–negative control MCF) / (positive control MCF–negative control MCF).
Experimental for Ras: GST effector chimeras consisting of the minimal GTPase binding domain were p21-activated kinase p21 binding domain (PAK-PBD) for Cdc42, Raf1 Ras-binding domain (Raf1-RBD) for Ras, and Rab-interacting lysosomal protein (RILP) for Rab7 binding measurements.
Superdex peptide beads (13 μm, from GE Healthcare) derivatized with GSH were coated with effector proteins to saturation. […] The effector-coated glutathione beads (20,000 beads/assay) were incubated with 200 μL cell lysate from a single treated well for 1 h at 4°C. […] The bead associated fluorescence representing bound GTPase was quantified on an Accuri C6 flow cytometer.

Take `CC1(C)Cc2c(sc(NC(=S)NC(=O)c3ccccc3)c2C(=O)O)CO1` [Compound 1]: the “level of active Cdc42 after EGF stimulation” value on Cdc42 is on record as “below the basal levels”. In addition, the solubility in data set [1] (Dose Response-buffer (HEPES buffer), 23 °C, aqueous with cosolvent or surfactant or cyclodextrin, 30mM HEPES, pH 7.5, 100mM KCl, 20mM NaCl, 0.01% (v/v) NP-40, read-out: Solubility, Dose Response-buffer) is > 68.1 µg/mL and > 174 µM; in data set [1] (EGFR degradation assay medium, DMEM/F-12, read-out: Solubility, EGFR degradation assay medium), > 116 µg/mL and > 297 µM; in data set [1] (LDV-FITC assay buffer, RPMI 1640 + 10% HI-FBS, read-out: Solubility, LDV-FITC assay buffer) it was > 116 µg/mL and > 297 µM; in [1] (phosphate buffered saline (PBS), PBS pH 7.4, 23 °C, read-out: PBS solubility), > 116 µg/mL and > 297 µM. The EC50 at Cdc42 Q61L (setting [4]) stood at 0.047 ± 0.038 µM; at Cdc42 Q61L (setting [5]), 0.35 µM; at Rac1 Q61L (setting [4]), 0.075 ± 0.059 µM; at Rac1 Q61L (setting [5]), 0.12 µM. In addition, the toxicity result with SCC-12F cells and with U937 FPRΔST cells [2] was “did not show toxicity” in each case. Further, the “level of active Ras after EGF stimulation” value in the data set with Ras is given as “dramatically blunted”. For the same compound, the apoptosis entry with H358 cells was “time-dependent apoptosis increase”. The apoptosis increase result in the data set with U937 FPRΔST cells [3] is “absent”.

What is called solubility is the concentration that dissolves in the medium under given conditions. Broadly, the EC50 is the concentration that produces a half-maximal response. Read a high EC50 as a less potent agent.
